From PubChem BioAssay AID1259407 (Chemical Carcinogenesis Research Information System (CCRIS), 2018)
The source made the active and inactive calls. No rule for the calls is given here.

System: CCRIS mutagenicity, Ames/micronucleus/aberration tests
Assay: CCRIS mutagenicity studies
[1] = Test System: AMES SALMONELLA TYPHIMURIUM, Strain/Indicator: TA98, Metabolic Activation: NONE, Method: PREINCUBATION
[2] = Test System: AMES SALMONELLA TYPHIMURIUM, Strain/Indicator: TA100, Metabolic Activation: NONE, Method: PREINCUBATION
[3] = Test System: AMES SALMONELLA TYPHIMURIUM, Strain/Indicator: TA98, Metabolic Activation: NONE, Method: STANDARD PLATE
[4] = Test System: AMES SALMONELLA TYPHIMURIUM, Strain/Indicator: TA100, Metabolic Activation: NONE, Method: STANDARD PLATE

CCCCOB(OCCCC)OCCCC
mutagenic call (Test System: AMES SALMONELLA TYPHIMURIUM, Strain/Indicator: TA98, Metabolic Activation: HAMSTER, LIVER, S-9, AROCLOR 1254, Method: PREINCUBATION): inactive; negative
mutagenic call [1]: inactive; negative
mutagenic call (Test System: AMES SALMONELLA TYPHIMURIUM, Strain/Indicator: TA98, Metabolic Activation: RAT, LIVER, S-9, AROCLOR 1254, Method: PREINCUBATION): inactive; negative
mutagenic call (Test System: AMES SALMONELLA TYPHIMURIUM, Strain/Indicator: TA100, Metabolic Activation: HAMSTER, LIVER, S-9, AROCLOR 1254, Method: PREINCUBATION): inactive; negative
mutagenic call [2]: inactive; negative
mutagenic call (Test System: AMES SALMONELLA TYPHIMURIUM, Strain/Indicator: TA100, Metabolic Activation: RAT, LIVER, S-9, AROCLOR 1254, Method: PREINCUBATION): inactive; negative
mutagenic call (Test System: AMES SALMONELLA TYPHIMURIUM, Strain/Indicator: TA1535, Metabolic Activation: HAMSTER, LIVER, S-9, AROCLOR 1254, Method: PREINCUBATION): inactive; negative
mutagenic call (Test System: AMES SALMONELLA TYPHIMURIUM, Strain/Indicator: TA1535, Metabolic Activation: NONE, Method: PREINCUBATION): inactive; negative
mutagenic call (Test System: AMES SALMONELLA TYPHIMURIUM, Strain/Indicator: TA1535, Metabolic Activation: RAT, LIVER, S-9, AROCLOR 1254, Method: PREINCUBATION): inactive; negative
mutagenic call (Test System: AMES SALMONELLA TYPHIMURIUM, Strain/Indicator: TA1537, Metabolic Activation: HAMSTER, LIVER, S-9, AROCLOR 1254, Method: PREINCUBATION): inactive; negative
mutagenic call (Test System: AMES SALMONELLA TYPHIMURIUM, Strain/Indicator: TA1537, Metabolic Activation: NONE, Method: PREINCUBATION): inactive; negative
mutagenic call (Test System: AMES SALMONELLA TYPHIMURIUM, Strain/Indicator: TA1537, Metabolic Activation: RAT, LIVER, S-9, AROCLOR 1254, Method: PREINCUBATION): inactive; negative

O=S(=O)(O)c1ccc(N=Nc2c(O)ccc3ccccc23)cc1
mutagenic call (Test System: AMES SALMONELLA TYPHIMURIUM, Strain/Indicator: TA98, Metabolic Activation: HAMSTER, LIVER, S-9, Method: PREINCUBATION (PRIVAL METHOD)): inactive; negative
mutagenic call [1]: inactive; negative
mutagenic call [3]: inactive; negative
mutagenic call (Test System: AMES SALMONELLA TYPHIMURIUM, Strain/Indicator: TA98, Metabolic Activation: RAT LIVER S-9, AROCLOR 1254, Method: STANDARD PLATE): inactive; negative
mutagenic call (Test System: AMES SALMONELLA TYPHIMURIUM, Strain/Indicator: TA98, Metabolic Activation: RAT, LIVER, S-9, PHENOBARBITAL, Method: PREINCUBATION): inactive; negative
mutagenic call [2]: inactive; negative
mutagenic call [4]: inactive; negative
mutagenic call (Test System: AMES SALMONELLA TYPHIMURIUM, Strain/Indicator: TA100, Metabolic Activation: RAT LIVER S-9, AROCLOR 1254, Method: STANDARD PLATE): inactive; negative
mutagenic call (Test System: AMES SALMONELLA TYPHIMURIUM, Strain/Indicator: TA100, Metabolic Activation: RAT, LIVER, S-9, PHENOBARBITAL, Method: PREINCUBATION): inactive; negative

Cc1ccc([N+](=O)[O-])c(C)c1
mutagenic call [1]: inactive; negative
mutagenic call (Test System: AMES SALMONELLA TYPHIMURIUM, Strain/Indicator: TA98, Metabolic Activation: RAT, LIVER, S-9, KANECHLOR 500, Method: PREINCUBATION): inactive; negative
mutagenic call [2]: inactive; negative

O=[N+]([O-])C1c2ccccc2-c2ccccc21
mutagenic call (End Point: IN VITRO CHROMOSOMAL ABERRATIONS, Test System: CHINESE HAMSTER LUNG (CHL) CELLS, Metabolic Activation: NONE): active; positive
mutagenic call (End Point: IN VITRO CHROMOSOMAL ABERRATIONS, Test System: CHINESE HAMSTER LUNG (CHL) CELLS, Metabolic Activation: NONE, Method: FISH): active; positive
mutagenic call (End Point: IN VITRO CHROMOSOMAL ABERRATIONS, Test System: CHINESE HAMSTER LUNG (CHL) CELLS, Metabolic Activation: RAT, LIVER, S-9, KC-400): active; positive
mutagenic call (Test System: E. COLI, Strain/Indicator: WP2 UVRA, Metabolic Activation: NONE, Method: FLUCTUATION): active; positive

CC(C)=CCOc1c2occc2cc2ccc(=O)oc12
mutagenic call (Test System: AMES SALMONELLA TYPHIMURIUM, Strain/Indicator: TA92, Metabolic Activation: NONE, Method: SPOT TEST): active; positive
mutagenic call (Test System: AMES SALMONELLA TYPHIMURIUM, Strain/Indicator: TA92, Metabolic Activation: RAT, LIVER, S-9, AROCLOR 1254, Method: SPOT TEST): active; positive
mutagenic call (Test System: AMES SALMONELLA TYPHIMURIUM, Strain/Indicator: TA94, Metabolic Activation: NONE, Method: SPOT TEST): inactive; negative
mutagenic call (Test System: AMES SALMONELLA TYPHIMURIUM, Strain/Indicator: TA94, Metabolic Activation: RAT, LIVER, S-9, AROCLOR 1254, Method: SPOT TEST): inactive; negative
mutagenic call (Test System: AMES SALMONELLA TYPHIMURIUM, Strain/Indicator: TA97, Metabolic Activation: NONE, Method: SPOT TEST): active; positive
mutagenic call (Test System: AMES SALMONELLA TYPHIMURIUM, Strain/Indicator: TA97, Metabolic Activation: RAT, LIVER, S-9, AROCLOR 1254, Method: SPOT TEST): active; positive
mutagenic call (Test System: AMES SALMONELLA TYPHIMURIUM, Strain/Indicator: TA98, Metabolic Activation: NONE, Method: SPOT TEST): active; positive
mutagenic call [3]: inactive; negative
mutagenic call (Test System: AMES SALMONELLA TYPHIMURIUM, Strain/Indicator: TA98, Metabolic Activation: RAT, LIVER, S-9, AROCLOR 1254, Method: SPOT TEST): active; positive
mutagenic call (Test System: AMES SALMONELLA TYPHIMURIUM, Strain/Indicator: TA98, Metabolic Activation: RAT, LIVER, S-9, PHENOBARBITAL, Method: STANDARD PLATE): inactive; negative
mutagenic call (Test System: AMES SALMONELLA TYPHIMURIUM, Strain/Indicator: TA100, Metabolic Activation: NONE, Method: SPOT TEST): active; positive
mutagenic call [4]: active; positive
mutagenic call (Test System: AMES SALMONELLA TYPHIMURIUM, Strain/Indicator: TA100, Metabolic Activation: RAT, LIVER, S-9, AROCLOR 1254, Method: SPOT TEST): active; positive
mutagenic call (Test System: AMES SALMONELLA TYPHIMURIUM, Strain/Indicator: TA102, Metabolic Activation: NONE, Method: SPOT TEST): inactive; negative
mutagenic call (Test System: AMES SALMONELLA TYPHIMURIUM, Strain/Indicator: TA102, Metabolic Activation: RAT, LIVER, S-9, AROCLOR 1254, Method: SPOT TEST): inactive; negative

CC1(C)[C@H](C(=O)O[C@H](C#N)c2cccc(Oc3ccccc3)c2)[C@@H]1C(Br)C(Br)(Br)Br (some centres undefined)
mutagenic call (End Point: In vivo chromosomal aberrations, Test System: Bone marrow cells, Species: Rat, Strain/Sex: Sprague Dawley CD, Route: Gavage): inactive; negative
mutagenic call (Test System: Ames Salmonella typhimurium, Strain/Indicator: TA98, Metabolic Activation: None): inactive; negative (precipitation above 100 ug/plate)
mutagenic call (Test System: Ames Salmonella typhimurium, Strain/Indicator: TA98, Metabolic Activation: Rat, Liver, S-9, Aroclor 1254): inactive; negative (precipitation above 100 ug/plate)
mutagenic call (Test System: Ames Salmonella typhimurium, Strain/Indicator: TA100, Metabolic Activation: None): inactive; negative (precipitation above 100 ug/plate)
mutagenic call (Test System: Ames Salmonella typhimurium, Strain/Indicator: TA100, Metabolic Activation: Rat, Liver, S-9, Aroclor 1254): inactive; negative (precipitation above 100 ug/plate)
mutagenic call (Test System: Ames Salmonella typhimurium, Strain/Indicator: TA1535, Metabolic Activation: None): inactive; negative (precipitation above 100 ug/plate)
mutagenic call (Test System: Ames Salmonella typhimurium, Strain/Indicator: TA1535, Metabolic Activation: Rat, Liver, S-9, Aroclor 1254): inactive; negative (precipitation above 100 ug/plate)
mutagenic call (Test System: Ames Salmonella typhimurium, Strain/Indicator: TA1537, Metabolic Activation: None): inactive; negative (precipitation above 100 ug/plate)
mutagenic call (Test System: Ames Salmonella typhimurium, Strain/Indicator: TA1537, Metabolic Activation: Rat, Liver, S-9, Aroclor 1254): inactive; negative (precipitation above 100 ug/plate)
mutagenic call (Test System: Ames Salmonella typhimurium, Strain/Indicator: TA1538, Metabolic Activation: None): inactive; negative (precipitation above 100 ug/plate)
mutagenic call (Test System: Ames Salmonella typhimurium, Strain/Indicator: TA1538, Metabolic Activation: Rat, Liver, S-9, Aroclor 1254): inactive; negative (precipitation above 100 ug/plate)
